Results as given in patent US20210045385A1, “PYRIDAZINONE-SUBSTITUTED KETOXIMES AS HERBICIDES” (FMC Corporation, priority 2018, published 2021).

Columns and labels:
Assay type in all cases: in vivo
[1] = test system: Italian ryegrass (Lolium multiflorum); test: Test A postemergence, visual plant response rating; conditions: for Ryegrass, Italian plant response rating (0 to 100 scale): 500 g ai/ha, postemergence, 0 is no effect, 100 is complete control; for Ryegrass, Italian plant response rating: Postemergence, 125 g ai/ha, 0 to 100 scale (0 no effect, 100 complete control)
Outline: (§1)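 Formulated in a non-phytotoxic solvent mixture including surfactant, each test chemical was sprayed onto the soil surface after sowing, or onto seedlings 2 to 10 cm high. Roughly 10 days later, plants were compared with untreated controls and rated for injury from 0 (no effect) to 100 (complete control).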

corn (Zea mays) = test: Test A postemergence, visual plant response rating; conditions: for Corn plant response rating (0 to 100 scale): 500 g ai/ha, postemergence, 0 is no effect, 100 is complete control; for Corn plant response rating: Postemergence, 125 g ai/ha, 0 to 100 scale (0 no effect, 100 complete control)
Outline: as §1

[2] = test system: ragweed (common ragweed, Ambrosia elatior); test: Test A postemergence, visual plant response rating; conditions: for Ragweed plant response rating (0 to 100 scale): 500 g ai/ha, postemergence, 0 is no effect, 100 is complete control; for Ragweed plant response rating: Postemergence, 125 g ai/ha, 0 to 100 scale (0 no effect, 100 complete control)
Outline: as §1

[3] = test system: blackgrass (Alopecurus myosuroides); test: Test A postemergence, visual plant response rating; conditions: for Blackgrass plant response rating (0 to 100 scale): 500 g ai/ha, postemergence, 0 is no effect, 100 is complete control; for Blackgrass plant response rating: Postemergence, 125 g ai/ha, 0 to 100 scale (0 no effect, 100 complete control)
Outline: as §1

[4] = test system: barnyardgrass (Echinochloa crus-galli); test: Test A postemergence, visual plant response rating; conditions: for Barnyardgrass plant response rating (0 to 100 scale): 500 g ai/ha, postemergence, 0 is no effect, 100 is complete control; for Barnyardgrass plant response rating: Postemergence, 125 g ai/ha, 0 to 100 scale (0 no effect, 100 complete control)
Outline: as §1

[5] = test system: foxtail, giant (giant foxtail, Setaria faberii); test: Test A postemergence, visual plant response rating; conditions: for Foxtail, Giant plant response rating (0 to 100 scale): 500 g ai/ha, postemergence, 0 is no effect, 100 is complete control; for Foxtail, Giant plant response rating: Postemergence, 125 g ai/ha, 0 to 100 scale (0 no effect, 100 complete control)
Outline: as §1

[6] = test system: wheat (Triticum aestivum); test: Test A postemergence, visual plant response rating; conditions: for Wheat plant response rating (0 to 100 scale): 500 g ai/ha, postemergence, 0 is no effect, 100 is complete control; for Wheat plant response rating: Postemergence, 125 g ai/ha, 0 to 100 scale (0 no effect, 100 complete control)
Outline: as §1

kochia (Kochia scoparia) [7] = test: Test A postemergence, visual plant response rating; conditions: for Kochia plant response rating (0 to 100 scale): 500 g ai/ha, postemergence, 0 is no effect, 100 is complete control; for Kochia plant response rating: Postemergence, 125 g ai/ha, 0 to 100 scale (0 no effect, 100 complete control)
Outline: as §1

[8] = test system: galium (catchweed bedstraw, Galium aparine); test: Test A postemergence, visual plant response rating; conditions: for Galium plant response rating (0 to 100 scale): 500 g ai/ha, postemergence, 0 is no effect, 100 is complete control; for Galium plant response rating: Postemergence, 125 g ai/ha, 0 to 100 scale (0 no effect, 100 complete control)
Outline: as §1

[9] = test system: pigweed (Amaranthus retroflexus); test: Test A postemergence, visual plant response rating; conditions: for Pigweed plant response rating (0 to 100 scale): 500 g ai/ha, postemergence, 0 is no effect, 100 is complete control; for Pigweed plant response rating: Postemergence, 125 g ai/ha, 0 to 100 scale (0 no effect, 100 complete control)
Outline: as §1

[10] = test system: ducksalad (Heteranhera limosa); test: Test B flooded paddy test, visual plant response rating; conditions: 250 g ai/ha, Flood, applied to paddy water, 2-leaf stage, evaluated after 13 to 15 days
Outline: (§2)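 Greenhouse paddy conditions applied: two-leaf plants, a 3 cm flood above the soil surface maintained throughout, and compound added to the water rather than the foliage. Plants were judged visually against controls at 13 to 15 days.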

[11] = test system: barnyardgrass (Echinochloa crus-galli); test: as above; conditions: 250 g ai/ha, Flood, applied to paddy water, 2-leaf stage, evaluated after 13 to 15 days
Outline: as §2

rice (Oryza sativa) = test: as above; conditions: 250 g ai/ha, Flood, applied to paddy water, 2-leaf stage, evaluated after 13 to 15 days
Outline: as §2

[12] = test system: sedge, umbrella (small-flower umbrella sedge, Cyperus difformis); test: as above; conditions: 250 g ai/ha, Flood, applied to paddy water, 2-leaf stage, evaluated after 13 to 15 days
Outline: as §2

[13] = test system: Italian ryegrass (Lolium multiflorum); test: Test A preemergence, visual plant response rating; conditions: for Ryegrass, Italian plant response rating: 125 g ai/ha, preemergence, 0 to 100 scale, 0 no effect, 100 complete control; for Ryegrass, Italian plant response rating (0 to 100 scale): 500 g ai/ha Preemergence, approx. 10 days
Outline: as §1

[14] = test system: ragweed (common ragweed, Ambrosia elatior); test: Test A preemergence, visual plant response rating; conditions: for Ragweed plant response rating: 125 g ai/ha, preemergence, 0 to 100 scale, 0 no effect, 100 complete control; for Ragweed plant response rating (0 to 100 scale): 500 g ai/ha Preemergence, approx. 10 days
Outline: as §1

[15] = test system: barnyardgrass (Echinochloa crus-galli); test: Test A preemergence, visual plant response rating; conditions: for Barnyardgrass plant response rating: 125 g ai/ha, preemergence, 0 to 100 scale, 0 no effect, 100 complete control; for Barnyardgrass plant response rating (0 to 100 scale): 500 g ai/ha Preemergence, approx. 10 days
Outline: as §1

[16] = test system: foxtail, giant (giant foxtail, Setaria faberii); test: Test A preemergence, visual plant response rating; conditions: for Foxtail, Giant plant response rating: 125 g ai/ha, preemergence, 0 to 100 scale, 0 no effect, 100 complete control; for Foxtail, Giant plant response rating (0 to 100 scale): 500 g ai/ha Preemergence, approx. 10 days
Outline: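 Ratings use a 0–100 visual scale (100 = complete control) against untreated controls, scored about 10 days after greenhouse treatment. Test chemicals were formulated in surfactant-containing non-phytotoxic solvent and applied either as soil spray after planting (preemergence) or onto one- to two-leaf, 2–10 cm plants (postemergence).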

kochia (Kochia scoparia) [17] = test: Test A preemergence, visual plant response rating; conditions: for Kochia plant response rating: 125 g ai/ha, preemergence, 0 to 100 scale, 0 no effect, 100 complete control; for Kochia plant response rating (0 to 100 scale): 500 g ai/ha Preemergence, approx. 10 days
Outline: as §1

[18] = test system: pigweed (Amaranthus retroflexus); test: Test A preemergence, visual plant response rating; conditions: for Pigweed plant response rating: 125 g ai/ha, preemergence, 0 to 100 scale, 0 no effect, 100 complete control; for Pigweed plant response rating (0 to 100 scale): 500 g ai/ha Preemergence, approx. 10 days
Outline: as §1

Compound	Ryegrass, Italian plant response rating (0 to 100 scale) [1]	Ryegrass, Italian plant response rating [1]	Corn plant response rating (0 to 100 scale) (corn (Zea mays))	Corn plant response rating (corn (Zea mays))	Ragweed plant response rating (0 to 100 scale) [2]	Ragweed plant response rating [2]	Blackgrass plant response rating (0 to 100 scale) [3]	Blackgrass plant response rating [3]	Barnyardgrass plant response rating (0 to 100 scale) [4]	Barnyardgrass plant response rating [4]	Foxtail, Giant plant response rating (0 to 100 scale) [5]	Foxtail, Giant plant response rating [5]	Wheat plant response rating (0 to 100 scale) [6]	Wheat plant response rating [6]	Kochia plant response rating (0 to 100 scale) (kochia (Kochia scoparia) [7])	Kochia plant response rating (kochia (Kochia scoparia) [7])	Galium plant response rating (0 to 100 scale) [8]	Galium plant response rating [8]	Pigweed plant response rating (0 to 100 scale) [9]	Pigweed plant response rating [9]	further results
CCc1ccccc1/C(=N\OC)c1c(O)c(C)nn(C)c1=O [Compound 69]	80	80	20	0	70	70	60	10	30	20	40	10	0	0	70	50	80	70	70	40	Plant response rating, Ducksalad (0 to 100 scale, 0 is no effect, 100 is complete control) [10]: 0; Plant response rating, Barnyardgrass (0 to 100 scale, 0 is no effect, 100 is complete control) [11]: 0; Plant response rating, Rice (0 to 100 scale, 0 is no effect, 100 is complete control) (rice (Oryza sativa)): 0; Plant response rating, Sedge, Umbrella (0 to 100 scale, 0 is no effect, 100 is complete control) [12]: 0; Ryegrass, Italian plant response rating [13]: 10; Ryegrass, Italian plant response rating (0 to 100 scale) [13]: 80; Ragweed plant response rating [14]: 10; Ragweed plant response rating (0 to 100 scale) [14]: 40; Barnyardgrass plant response rating [15]: 0; Barnyardgrass plant response rating (0 to 100 scale) [15]: 10; Foxtail, Giant plant response rating [16]: 10; Foxtail, Giant plant response rating (0 to 100 scale) [16]: 30; Kochia plant response rating (kochia (Kochia scoparia) [17]): 0; Kochia plant response rating (0 to 100 scale) (kochia (Kochia scoparia) [17]): 10; Pigweed plant response rating [18]: 10; Pigweed plant response rating (0 to 100 scale) [18]: 70
CON=C(c1cccc(C)c1F)c1c(O)c(C)nn(C)c1=O [Compound 70]	70	0	0	0	80	80	30	0	30	0	40	0	0	0	80	70	80	70	90	80	Plant response rating, Ducksalad (0 to 100 scale, 0 is no effect, 100 is complete control) [10]: 0; Plant response rating, Barnyardgrass (0 to 100 scale, 0 is no effect, 100 is complete control) [11]: 0; Plant response rating, Rice (0 to 100 scale, 0 is no effect, 100 is complete control) (rice (Oryza sativa)): 0; Plant response rating, Sedge, Umbrella (0 to 100 scale, 0 is no effect, 100 is complete control) [12]: 0; Ryegrass, Italian plant response rating [13]: 0; Ryegrass, Italian plant response rating (0 to 100 scale) [13]: 10; Ragweed plant response rating [14]: 70; Ragweed plant response rating (0 to 100 scale) [14]: 80; Barnyardgrass plant response rating [15]: 0; Barnyardgrass plant response rating (0 to 100 scale) [15]: 10; Foxtail, Giant plant response rating [16]: 0; Foxtail, Giant plant response rating (0 to 100 scale) [16]: 10; Kochia plant response rating (kochia (Kochia scoparia) [17]): 0; Kochia plant response rating (0 to 100 scale) (kochia (Kochia scoparia) [17]): 50; Pigweed plant response rating [18]: 0; Pigweed plant response rating (0 to 100 scale) [18]: 40
